# Assay results: patent US5814654A, “Substituted guanidine derivatives” (Sumitomo Pharmaceuticals Company, Limited, priority 1996, dated 1998)
# Target: T1, Na+/H+ exchange transport system (Rattus norvegicus, UniProt P26431)
# T1 construct: using the vascular smooth muscle cells isolated from the rat thoracic aorta; endogenous in cells; host or cells: vascular smooth muscle cells isolated from the rat thoracic aorta
# Experiment: Inhibitory effect on the Na+/H+ exchange transport system (in vitro), change in intracellular pH during acid loading
# Type: cell-based
# Details: vascular smooth muscle cells isolated from the rat thoracic aorta
# Experimental: Inhibitory effect on the Na+/H+ exchange transport system (in vitro)
# The test was carried out according to the method of Yamori et al. (J. Hypertension, 8, 153 (1990)). In detail, inhibitory effect on the Na+/H+ exchange transport system was evaluated by the change in intracellular pH during acid loading, using the vascular smooth muscle cells isolated from the rat thoracic aorta.
# T1 sequence (P26431 whole entry): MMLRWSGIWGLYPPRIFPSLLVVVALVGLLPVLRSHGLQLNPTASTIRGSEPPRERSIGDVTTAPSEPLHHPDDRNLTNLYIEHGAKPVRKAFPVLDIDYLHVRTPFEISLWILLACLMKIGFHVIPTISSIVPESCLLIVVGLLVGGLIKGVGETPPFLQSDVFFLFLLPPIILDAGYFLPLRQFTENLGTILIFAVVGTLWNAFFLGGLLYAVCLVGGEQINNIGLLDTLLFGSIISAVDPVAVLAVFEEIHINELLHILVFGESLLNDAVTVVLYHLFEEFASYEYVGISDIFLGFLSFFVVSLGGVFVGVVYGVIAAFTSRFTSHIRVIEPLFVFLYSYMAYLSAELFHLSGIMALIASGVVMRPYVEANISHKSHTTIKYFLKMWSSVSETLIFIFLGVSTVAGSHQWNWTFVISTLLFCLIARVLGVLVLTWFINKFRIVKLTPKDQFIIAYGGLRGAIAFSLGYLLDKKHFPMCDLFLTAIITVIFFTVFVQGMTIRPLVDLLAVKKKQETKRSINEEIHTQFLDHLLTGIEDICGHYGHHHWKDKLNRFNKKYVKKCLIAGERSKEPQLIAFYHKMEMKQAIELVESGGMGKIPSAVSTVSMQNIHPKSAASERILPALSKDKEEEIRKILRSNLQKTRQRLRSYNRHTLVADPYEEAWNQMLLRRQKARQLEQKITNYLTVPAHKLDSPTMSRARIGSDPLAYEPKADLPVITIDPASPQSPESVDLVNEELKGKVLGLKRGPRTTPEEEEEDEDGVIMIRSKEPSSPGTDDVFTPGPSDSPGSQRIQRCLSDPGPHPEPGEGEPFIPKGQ
smiles,measurement,value
"Cn1c(C(=O)N=C(N)N)c2c3c(cccc31)CCC2 [Example 2, N-(aminoiminomethyl)-1,3,4,5-tetrahydro-1-methyl-benz[cd]indole-2-carboxamide methanesulfonate]",IC50,150 nM
"NC(N)=NC(=O)c1[nH]c2cccc3c2c1CCC3=O [Example 1, N-(aminoiminomethyl)-1,3,4,5-tetrahydro-5-oxo-benz[cd]indole-2-carboxamidemethanesulfonate]",IC50,4000 nM
"NC(N)=NC(=O)c1[nH]c2cccc3c2c1CCC3 [Example 3, N-(aminoiminomethyl)-1,3,4,5-tetrahydro-benz[cd]indole-2-carboxamide methanesulfonate]",IC50,700 nM
